Experimental data as given in US20240148743A1, “USES OF MELANOCORTIN-4 RECEPTOR AGONIST” (LG CHEM, LTD., priority 2021, published 2024).

System: db/db mice
Assay: db/db mouse model experiment (leptin receptor-deficient genetic obesity model, 45 kcal % high-fat diet)
Format: in vivo
Protocol: To confirm anti-obesity efficacy, N-((3S,5S)-1-((3S,4R)-1-(tert-butyl)-4-(4-chlorophenyl)pyrrolidine-3-carbonyl)-5- (morpholine-4 -carbonyl)pyrrolidin-3-yl)-N-((1s ,4R)-4-methylcyclohexyl)isobutyramide hydrochloride (hereinafter referred to as “Test Compound”) obtained in the Preparation Example was administered repeatedly for 4 weeks while feeding 45 kcal % high-fat diet (diet with 45 kcal % fat) to db/db mice which is a genetic obesity mouse model in which a mutation in the leptin receptor associated with the MC4R pathway occurred. The weight gain inhibitory effect was confirmed by measuring the body weight during the administration period, and the body fat mass reduction effect was confirmed by measuring the total body fat mass after repeated administration for 4 weeks. […] The results are represented in FIG. 1.

[1] = body fat analysis after repeated administration for 4 weeks, compared to the negative control group
[2] = db/db mice on 45 kcal % high-fat diet, repeated administration for 4 weeks, compared to the negative control group

Question: `CC(C)C(=O)N([C@H]1C[C@@H](C(=O)N2CCOCC2)N(C(=O)[C@@H]2CN(C(C)(C)C)C[C@H]2c2ccc(Cl)cc2)C1)[C@H]1CC[C@@H](C)CC1.Cl` [Test Compound, N-((3S,5S)-1-((3S,4R)-1-(tert-butyl)-4-(4-chlorophenyl)pyrrolidine-3-carbonyl)-5-(morpholine-4-carbonyl)pyrrolidin-3-yl)-N-((1s ,4R)-4-methylcyclohexyl)isobutyramide hydrochloride] was tested. Which fat mass [1] did it give?
Answer: The fat mass was “significantly decreased”.

Question: And the fat-free mass [1]?
Answer: The fat-free mass was “no difference”.

Question: And the body weight [2]?
Answer: The body weight was “significantly reduced”.

Question: And the weight gain rate [2]?
Answer: The weight gain rate was “significantly decreased”.

Question: And the weight loss effect (leptin receptor-deficient mouse model (db/db), FIG. 1)?
Answer: The weight loss effect was “significant weight loss effect”.
